Structures can show the parent of a compound that is named as a salt.

Assay [1] deals with recombinant human enteropeptidase (Homo sapiens (Human), UniProt P98073). Description: Measurement of enteropeptidase inhibitory activity. In kind it is biochemical. The note with it: substrate Gly-Asp-Asp-Asp-Asp-Lys-β-Naphtylamide, Tris-HCl pH 8.0, Dixon plot. The procedure:
Measurement of Enteropeptidase Inhibitory Activity
Using a 96 well plate (#3915, Costar), a test compound (25 μL), 400 mM Tris-HCl buffer (pH 8.0, 25 μL) and 0.5 mg/mL fluorescence enzyme substrate (Gly-Asp-Asp-Asp-Asp-Lys-β-Naphtylamide, 25 μL) were mixed, and recombinant human enteropeptidase (R&D Systems, Inc., 25 μL) was added. Using a fluorescence plate reader fmax (Molecular Devices, Inc.), the reaction rate was measured from the time-course changes at excitation wavelength 320 nm and fluorescence wavelength 405 nm. The Ki value was calculated from the concentration of the test compound, reciprocal of reaction rate, and Km value of the enzyme substrate, and by using Dixon plot.

Assay [2] deals with human trypsin. Description: Measurement of trypsin inhibitory activity. In kind it is biochemical. The note with it: substrate Boc-Phe-Ser-Arg-AMC, Tris-HCl pH 8.0, Dixon plot. The procedure: Measurement of Trypsin Inhibitory Activity
Using a 96 well plate (#3915, Costar), a test compound (25 μL) was mixed with 20 μM fluorescence enzyme substrate (Boc-Phe-Ser-Arg-AMC, 50 μL) mixed with 200 mM Tris-HCl buffer (pH 8.0), and human trypsin (Sigma, 25 μL) was added. Using a fluorescence plate reader fmax (Molecular Devices, Inc.), the reaction rate was measured from the time-course changes at excitation wavelength 355 nm and fluorescence wavelength 460 nm. The Ki value was calculated from the concentration of the test compound, reciprocal of reaction rate, and Km value of the enzyme substrate, and by using Dixon plot.

Chain of recombinant human enteropeptidase (P98073 whole entry): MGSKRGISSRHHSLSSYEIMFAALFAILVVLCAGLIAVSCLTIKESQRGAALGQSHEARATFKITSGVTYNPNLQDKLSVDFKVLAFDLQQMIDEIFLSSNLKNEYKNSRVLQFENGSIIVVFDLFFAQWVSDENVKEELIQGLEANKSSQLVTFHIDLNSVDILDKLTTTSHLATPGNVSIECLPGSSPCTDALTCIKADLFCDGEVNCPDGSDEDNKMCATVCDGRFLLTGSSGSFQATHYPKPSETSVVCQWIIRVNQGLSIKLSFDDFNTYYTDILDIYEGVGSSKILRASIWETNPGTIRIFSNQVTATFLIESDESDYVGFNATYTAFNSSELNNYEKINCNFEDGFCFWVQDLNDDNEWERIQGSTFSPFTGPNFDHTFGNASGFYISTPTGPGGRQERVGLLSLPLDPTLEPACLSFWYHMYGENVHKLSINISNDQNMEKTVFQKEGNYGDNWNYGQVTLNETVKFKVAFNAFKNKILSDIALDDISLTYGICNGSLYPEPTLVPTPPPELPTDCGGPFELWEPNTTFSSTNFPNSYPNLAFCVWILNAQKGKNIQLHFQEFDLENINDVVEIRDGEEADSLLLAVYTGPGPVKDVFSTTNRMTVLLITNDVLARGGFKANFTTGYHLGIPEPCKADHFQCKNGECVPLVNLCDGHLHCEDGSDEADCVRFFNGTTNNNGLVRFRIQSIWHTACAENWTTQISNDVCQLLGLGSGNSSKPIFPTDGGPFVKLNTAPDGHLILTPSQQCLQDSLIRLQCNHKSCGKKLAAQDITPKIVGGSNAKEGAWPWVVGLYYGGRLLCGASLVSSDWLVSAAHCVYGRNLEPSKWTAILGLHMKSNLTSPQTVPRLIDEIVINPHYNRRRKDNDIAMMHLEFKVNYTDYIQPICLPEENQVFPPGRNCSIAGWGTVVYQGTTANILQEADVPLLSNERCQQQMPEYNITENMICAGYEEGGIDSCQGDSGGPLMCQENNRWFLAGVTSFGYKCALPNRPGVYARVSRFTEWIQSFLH

The Ki is the equilibrium dissociation constant of an inhibitor or competing ligand from its target. For the molecule `CCC(CC)(Cc1ccc(C(=O)Oc2ccc(C(=N)N)cc2F)s1)C(=O)N[C@@H]1COC(=O)C1` [Compound 34], the Ki in assay [1] was 2.56 nM; in assay [2], 2.73 nM.

Turning to `CC(C)(Cc1ccc(C(=O)Oc2ccc(C(=N)N)cc2F)s1)C(=O)N1CCC[C@H]1CC(=O)O` [Compound 41], the Ki in assay [1] was 1.58 nM; in assay [2], 3.88 nM.

In the case of `CCC(CC)(Cc1ccc(C(=O)Oc2ccc(C(=N)N)cc2F)s1)C(=O)N[C@H](CCC(=O)O)C(=O)O` [Compound 43], the values for the Ki in assay [1] and in assay [2] were 0.42 nM and 1.96 nM, respectively.

On to `CCC(CC)(Cc1ccc(C(=O)Oc2ccc(C(=N)N)cc2F)s1)C(=O)N[C@@H](CC(N)=O)C(=O)O` [Compound 44], for which the inhibition constant (Ki) in assay [1] was determined as 0.67 nM; in assay [2] it was 1.69 nM.

Consider `CC(C)(Cc1ccc(C(=O)Oc2ccc(C(=N)N)cc2F)s1)C(=O)Nc1ccc(O)c(C(=O)O)c1` [Compound 47], for which the inhibition constant Ki in assay [1] came to 0.53 nM; in assay [2] it was 0.92 nM.

On to `CC[C@H](C)[C@@H](CC(=O)O)NC(=O)C(CC)(CC)Cc1ccc(C(=O)Oc2ccc(C(=N)N)cc2F)s1` [Compound 49, N-{3-[5-(4-amidino-2-fluoro-phenoxycarbonyl)thiophen-2-yl]-2,2-diethylpropionyl}-beta-homoisoleucine hydrochloride], for which the Ki in assay [1] worked out at 3.26 nM; in assay [2] it was 1.97 nM.

Regarding `CCC(CC)(Cc1ccc(C(=O)Oc2ccc(C(=N)N)cc2F)s1)C(=O)NCc1ccc(C(=O)O)cc1` [Compound 53], the Ki came to 2.69 nM in assay [1] and 9.27 nM in assay [2].

Regarding `CC(C)(Cc1ccc(C(=O)Oc2ccc(C(=N)N)cc2F)s1)C(=O)NC1(C(=O)O)CCC1` [Compound 56], the Ki was found to be 0.51 nM in assay [1] and 1.49 nM in assay [2].

For the molecule `CC(C)(Cc1ccc(C(=O)Oc2ccc(C(=N)N)cc2F)s1)C(=O)NC1(C(=O)O)CC1` [Compound 57], the Ki in assay [1] is 0.67 nM; in assay [2], 1.01 nM.

Turning to `CCC(CC)(Cc1ccc(C(=O)Oc2ccc(C(=N)N)cc2F)s1)C(=O)NCCCCC(=O)O` [Compound 62], the inhibition constant Ki in assay [1] turned out to be 0.98 nM; in assay [2], 5.17 nM.

Consider `CC(C)(Cc1ccc(C(=O)Oc2ccc(C(=N)N)cc2F)s1)C(=O)NCCC#N` [Compound 63], for which the results for the inhibition constant Ki in assay [1] and in assay [2] were 2.9 nM and 3.65 nM, respectively.

In the case of `CC(C)(Cc1ccc(C(=O)Oc2ccc(C(=N)N)cc2F)s1)C(=O)NCc1nnn[nH]1` [Compound 65], the inhibition constant Ki amounted to 0.53 nM in assay [1] and 0.75 nM in assay [2].

Regarding `CC(C)(Cc1ccc(C(=O)Oc2ccc(C(=N)N)cc2F)s1)C(=O)N(CC(=O)O)CC1CC1` [Compound 76], the Ki in assay [1] was determined as 0.67 nM; in assay [2], 2.01 nM.

As to `CCC(CC)(Cc1ccc(C(=O)Oc2ccc(C(=N)N)cc2F)s1)C(=O)NCC(=O)NCC(=O)O` [Compound 77], the Ki is 0.69 nM in assay [1] and 1.42 nM in assay [2].

`CCC(CC)(Cc1ccc(C(=O)Oc2ccc(C(=N)N)cc2F)s1)C(=O)NC1(C(=O)O)CCC1` [Compound 80]: the figures for the Ki in assay [1] and in assay [2] were 1.33 nM and 4.67 nM, respectively.

With `CCC(CC)(Cc1ccc(C(=O)Oc2ccc(C(=N)N)cc2F)s1)C(=O)NCc1nnn[nH]1` [Compound 81], the values for the inhibitory constant (Ki) in assay [1] and in assay [2] were 1.2 nM and 3.54 nM, respectively.

These data come from patent US9024044B2, “Heteroarylcarboxylic acid ester derivative” (Ajinomoto Co., Inc., priority 2012, dated 2015).
